pIC50: −log10 of the molar value.

The values that follow come from ChEMBL document CHEMBL3045769, “Strategy for generation of new TACE inhibitors: pharmacophore and counter pharmacophore modeling to remove non-selective hits” (Med Chem Res, 2011).

This assay concerns the target Disintegrin and metalloproteinase domain-containing protein 17 (Homo sapiens, UniProt P78536). Briefly: Inhibition of TACE (unknown origin) using fluorogenic LAQAVRSSSR peptide as a substrate by fluorometric assay.

Chain of Disintegrin and metalloproteinase domain-containing protein 17 (P78536 whole entry, the tested form may be a part): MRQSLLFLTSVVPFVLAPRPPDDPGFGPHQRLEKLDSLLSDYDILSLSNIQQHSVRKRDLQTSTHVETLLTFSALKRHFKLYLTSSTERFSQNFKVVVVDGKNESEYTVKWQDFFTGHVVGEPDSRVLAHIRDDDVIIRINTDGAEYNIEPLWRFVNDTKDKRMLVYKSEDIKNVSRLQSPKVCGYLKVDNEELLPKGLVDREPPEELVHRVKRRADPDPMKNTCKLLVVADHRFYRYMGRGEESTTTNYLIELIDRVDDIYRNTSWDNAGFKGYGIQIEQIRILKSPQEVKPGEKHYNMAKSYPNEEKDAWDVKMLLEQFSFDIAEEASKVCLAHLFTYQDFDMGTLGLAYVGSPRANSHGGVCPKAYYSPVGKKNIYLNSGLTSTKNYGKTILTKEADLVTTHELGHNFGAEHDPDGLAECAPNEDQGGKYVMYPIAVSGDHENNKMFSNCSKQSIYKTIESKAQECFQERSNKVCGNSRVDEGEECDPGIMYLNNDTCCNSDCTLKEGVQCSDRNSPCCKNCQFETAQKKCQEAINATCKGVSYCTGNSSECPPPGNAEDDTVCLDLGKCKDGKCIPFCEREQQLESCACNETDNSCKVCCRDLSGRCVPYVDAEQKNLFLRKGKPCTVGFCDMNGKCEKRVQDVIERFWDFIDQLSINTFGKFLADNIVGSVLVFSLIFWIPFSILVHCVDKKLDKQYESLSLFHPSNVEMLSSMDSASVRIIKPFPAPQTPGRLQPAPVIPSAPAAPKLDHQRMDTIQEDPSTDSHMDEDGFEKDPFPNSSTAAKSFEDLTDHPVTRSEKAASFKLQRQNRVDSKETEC

Molecule `CNC(=O)[C@H](Cc1cccc2c1CCCC2)NC(=O)[C@H](CC(C)C)[C@H](C)C(=O)NO` gave a negative logarithm of the IC50 (pIC50) of 9.52. To `CC#CCOc1ccc(S(=O)(=O)NC(C)C(=O)NO)cc1` (configuration not stated) belongs 8.40.
